In US20080194656A1, “Benzotriazole Derivatives as Cannabinoid Receptor Antagonists” (priority 2005, published 2008):

Columns and labels:
[1] = target: T1, Human Cb-1 receptor (transfected CHO-K1 cell membranes) (Homo sapiens, UniProt P21554); experiment: Cb-1 competition receptor binding in cell membranes ([3H]CP55,940 displacement); conditions: 3H-CP55,940 0.5 nM, 1 hour at 25° C.; for IC50: read-out: Example C1 Binding pIC50 (converted)
T1 construct: host or cells: CHO-K1
Procedure: (§1) Human Cb-1 transfected CHO-K1 cells (Euroscreen; Cat # ES-110-C; hCB1-D1; accession n′ Swissprot X54937) were maintained as described previously (Felder et al., 1995 & 1998). For membrane preparation, cells were cultured in DMEM/Ham's F12 medium containing 10% (v/v) heat inactivated FCS, 100 U/ml penicillin and 100 μg/ml streptomycin, 100 μg/ml pyruvate and 292 μg/ml L-glutamine under 5% CO2 at 37° C. in roller bottles, with medium changed 3 times a week. When 90% confluent, cells collected by trypsinisation and re-seeded at 1:10 or 1:20 dilutions to fresh roller bottles. For measurement of cAMP formation, cells were cultured to 90% confluency in Falcon T175 flasks.
Prior to membrane preparation, confluent cells were treated with 5 mM butyrate for 24 hours. Medium was aspirated and cells were scraped from bottles in 50 ml homogenization buffer consisting of 15 mM Tris-HCl, pH 7.4 containing 2 mM MgCl2, 0.3 mM EDTA and 1 mM EGTA. The cells were then centrifuged for 10 minutes at 1700×g at 4° C. and homogenized in 20 ml same buffer with an Ultra Turrax. The crude membrane pellet was collected by two consecutive centrifugation steps at 20,000×g for 10 min and for 20 min at 25,000×g respectively, separated by a washing/homogenization step in 10 ml homogenization buffer. Final cell pellets were resuspended in a volume of 6 ml/roller bottle in stock buffer consisting of 7.5 mM Tris-HCl, pH 7.4, containing 12.5 mM MgCl2, 0.3 mM EDTA, 1 mM EGTA and 250 mM sucrose. Protein content was assayed by the BioRad method (Bradford, 1976).
Competition binding assays were performed in triplicate in a final volume of 0.5 ml containing incubation buffer (50 mM Tris-HCl, pH 7.4 containing 2.5 mM EDTA and 0.5% (w/v) BSA), 50 μl ^3H-CP55,940 (0.5 nM final), 0.4 ml transfected CHO-K1 membrane proteins (60 μg/ml) in the presence or absence of test compound. Non-specific binding determined using 1 μM CP55,940. The samples were incubated for 1 hour at 25° C., being terminated by rapid filtration on GF/C filters presoaked in 0.1% polyethylenimine, using a Unifilter-96 Harvester (PerkinElmer N.V./S.A. Belgium). Filters were washed 6 times with cold washing buffer (50 mM Tris-HCl, pH 7.4 containing 0.1% BSA), plates air-dried overnight before bound [^3H]CP55,940 was measured by liquid scintillation counting using a TopCount NXT microplate scintillation counter (Packard BioScience/ PerkinElmer N.V./S.A. Belgium). IC50 values were determined by a single-site binding equation (GraphPad Prism, San Diego, Calif., U.S.A.).

[2] = system: food intake in rats and mice; experiment: Feeding experiments, acute dose-response on food intake; type: in vivo; conditions: oral single dose, food intake 1 h after lights out
Procedure: Male Sprague Dawley rats (weighing 250-300 g at the time of experiment) were obtained from Charles River (Sulzfeld, Kisslegg, Germany). Male C57Bl/6J Rj mice (weighing 25-30 g at the time of experiments) were obtained from Janvier (Le Genest-St-Isle, France). All animals had free access to water and were individually housed under 12-h light:dark cycle (lights on at 22:00 h) and at a temperature of 19-22° C. and 35-40% humidity in Techniplast IVC cages adapted to fit external food hoppers. Rats and mice were fed a standard purified diet containing 10% kcal fat (Dyets, Inc. Bethlehem, USA; or Research diets, New Brunswick, N.J., USA). All experiments were carried out in accordance with the European Communities Council Directives (86/609/EEC) and were approved by the local ethical committee.
An acute dose-response analysis for each compound was performed. All rats and mice were randomly assigned and orally dosed with either vehicle (10% cyclodextran containing 0.9% (w/v) saline) or vehicle containing a single concentration of compound (0.16, 0.63, 2.50, 10.0, 40.0 mg/kg at 10 ml/kg) so that the average latency from time of drug administration and lights out was 45 minutes, with 6 animals per group. Food intake was measured 1, 2, 4, 6 and 24 hours after lights out.

[3] = target: T2, Cb-1 receptor stably expressed in CHO-K1 cells (Homo sapiens, UniProt P21554); experiment: Cyclic AMP accumulation (HTRF cAMP assay, antagonism of CP55940); type: cell-based; conditions: forskolin and CP55940 (agonist), 30 min at 25° C.; for IC50: read-out: Example C2 cAMP (antagonism) pIC50 (converted)
T2 construct: host or cells: CHO-K1
T2 sequence (P21554 whole entry): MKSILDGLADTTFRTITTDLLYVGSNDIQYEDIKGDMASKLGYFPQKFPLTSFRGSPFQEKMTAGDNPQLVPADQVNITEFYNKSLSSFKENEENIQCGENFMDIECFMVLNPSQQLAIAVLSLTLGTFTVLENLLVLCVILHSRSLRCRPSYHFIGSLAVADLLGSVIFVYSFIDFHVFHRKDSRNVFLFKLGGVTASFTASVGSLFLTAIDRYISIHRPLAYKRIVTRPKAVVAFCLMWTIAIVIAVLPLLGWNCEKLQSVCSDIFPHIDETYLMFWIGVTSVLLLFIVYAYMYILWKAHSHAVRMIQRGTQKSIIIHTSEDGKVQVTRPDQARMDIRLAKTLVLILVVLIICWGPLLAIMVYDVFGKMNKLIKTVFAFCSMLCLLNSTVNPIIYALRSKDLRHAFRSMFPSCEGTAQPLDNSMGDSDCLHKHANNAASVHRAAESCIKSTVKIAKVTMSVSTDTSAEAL
Procedure: as §1
Using the commercially available dynamic homogenous time-resolved fluorescence cAMP assay, the cAMP measurements on CHO-K1 cells that stably express the Cb-1 receptor were performed. Cells were detached from flasks using 3 ml EDTA (0.04% (w/v) in PBS) and resuspended in PBS (without Ca^2+ and Mg^2+) and centrifuged at 500×g for 5 min. Cell pellet was resuspended in stimulation buffer (HBSS medium containing 1 mM IBMX, 5 mM Hepes, 10 mM MgCl2 and 0.1% (w/v) BSA) and were dispensed into a black 96 well plate at a cell density of 20000 cells per well. After 30 min at 25° C., an equal volume of stimulation buffer containing forskolin and CP55940 (agonist) and/or a Cb-1 antagonist was added to the cells. After 30 min incubation at 25° C., cAMP detection was performed by addition of an equal volume of cAMP-XL665 and anti-cAMP-cryptate conjugates. The plate was incubated for a further 60 min at 25° C. and then measured with Discovery (PerkinElmer N.V./S.A. Belgium).

[4] = target: T1, Human Cb-1 receptor (transfected CHO-K1 cell membranes); experiment: Cb-1 competition receptor binding in cell membranes ([3H]CP55,940 displacement); conditions: statement on the enantiomers of the racemate, no test named

T1 sequence (P21554 whole entry): as above

Row | IC50 [1] [nM] | Example C1 Binding pIC50 [1] | SMILES | other results
1 | 288 | – | Clc1ccc(C(c2ccc3nnn(C4CCCCC4)c3c2)n2cncn2)cc1 (racemic) [Intermediate 7, 1H-Benzotriazole, 6-[(4-chlorophenyl)-1H-1,2,4-triazol-1-ylmethyl]-1-cyclohexyl-] | ED50 ([2]; po, 1 h, read-out: Example C3 Food intake at 1 h ED50): 3.28 mg/kg; IC50 [3]: 36.3 nM
2 | 8910 | – | Clc1ccc([C@H](c2ccc3nnn(C4CCCCC4)c3c2)n2cncn2)cc1 (single isomer, unassigned) [Compound 1] | Example C3 Food intake at 1 h ED50 [2]: >100 mg/kg
3 | 141 | – | Clc1ccc([C@H](c2ccc3nnn(C4CCCCC4)c3c2)n2cncn2)cc1 (single isomer, unassigned) [Compound 2, 1H-Benzotriazole, (−)-6-[(4-chlorophenyl)-1H-1,2,4-triazol-1-ylmethyl]-1-cyclohexyl-] | Example C3 Food intake at 1 h ED50 [2]: 2.69 mg/kg
4 | – | – | Clc1ccc([C@H](c2ccc3nnn(C4CCCCC4)c3c2)n2cncn2)cc1 [Compound 2, 1H-Benzotriazole, (−)-6-[(4-chlorophenyl)-1H-1,2,4-triazol-1-ylmethyl]-1-cyclohexyl-] | active as a CB1 modulator [4]: active
5 | 933 | – | CC(C)CCn1nnc2ccc(C(c3ccc(Cl)cc3)n3ccnc3)cc21 (stereo not drawn) [Compound 4] | IC50 [3]: 339 nM
6 | 832 | – | Clc1ccc(Cn2nnc3ccc(C(c4ccc(Cl)cc4)n4ccnc4)cc32)cc1 (stereo not drawn) [Compound 5] | IC50 [3]: 955 nM
7 | 5370 | – | Cn1nnc2ccc(C(c3ccc(Cl)cc3)c3nccs3)cc21 (stereo not drawn) [Compound 6] | –
8 | – | 6.69 | CC(C)n1nnc2ccc(C(c3ccc(Cl)cc3)n3cncn3)cc21 (stereo not drawn) [Compound 7] | Example C2 cAMP (antagonism) pIC50 [3]: 6.9
9 | – | 6.45 | CCCCn1nnc2ccc(C(c3ccc(Cl)cc3)n3cncn3)cc21 (stereo not drawn) [Compound 8] | Example C2 cAMP (antagonism) pIC50 [3]: 6.62
10 | – | 6.05 | c1ccc(C(c2ccc3nnn(C4CCCCC4)c3c2)n2ccnc2)cc1 (stereo not drawn) [Compound 9] | Example C2 cAMP (antagonism) pIC50 [3]: 5.79
11 | – | 6.28 | Clc1ccc(C(c2ccc3nnn(-c4ccccc4)c3c2)n2ccnc2)cc1 (stereo not drawn) [Compound 10] | Example C2 cAMP (antagonism) pIC50 [3]: 6.38
12 | – | 5.67 | CC(c1ccccc1)n1nnc2ccc(C(c3ccc(Cl)cc3)n3ccnc3)cc21 (stereo not drawn) [Compound 11] | –
13 | – | 5.53 | CC(C)n1nnc2ccc(C(c3ccc(Cl)cc3)n3ccnc3)cc21 (stereo not drawn) [Compound 12] | –
14 | – | 5.61 | Clc1ccc(C(c2ccc3nnn(Cc4ccccc4)c3c2)n2ccnc2)cc1 (stereo not drawn) [Compound 13] | –
